Results from US4560748A, “Streptothricin-group compounds” (Ajinomoto Company Incorporated, priority 1982, dated 1985).
Converted amounts (≈) assume the structure as drawn.

Key:
[1] = tested on: mouse leukemia L 1210 cells; experiment: Effect on L 1210 cell (relative multiplication number); assay type: cell-based; details: L1210, 120 h, 5 days, 0 μg/ml = 100; for activity at 10 µg/mL: 10 μg/ml; for activity at 20 µg/mL: 20 μg/ml; for activity at 40 µg/mL: 40 μg/ml; for activity at 50 µg/mL: 50 μg/ml; for activity at 60 µg/mL: 60 μg/ml
Procedure: A 10.28 g sample of RPMI 1640 powder medium (DAI-NIPPON SEIYAKU) was dissolved into 1.0 liter distilled water and 1.0 g NaHCO3 was added to it. Then the solution was filtered through a Millipore filter (pore size: 0.22μ) and supplemented with 100 ml of germ-free blood serum. One ml portions of the culture medium thus prepared were placed into Falcon Multi Well aseptically. Then a 0.05 ml culture sample of mouse leukemia L 1210 cells previously cultured was inoculated into each batch of the culture medium, and a definite amount of purified AN-201(I) or (II) dissolved in the same medium was added simultaneously to the culture medium. Thereafter, the inoculated media were incubated in a CO2 gas incubator (concentration of CO2 gas: 7.0%) at […]. After 5 days incubation, the numbers of multiplied cells were counted under a microscope and the relative multiplication numbers obtained are shown in Table 4.

[2] = tested on: mouse fibroblast cell 3T3; experiment: Number of injured cells, mouse fibroblast 3T3; assay type: cell-based; parameters: key: -: none of the cells injured; +: half of the cells injured; ++: about 2/3 of the cells injured; +++: almost all of the cells injured; details: 3 days
Procedure: (§1) MEM Uldecco powder (DAI-NIPPON SEIYAKU) (13.45 g) was dissolved in 1 l of distilled water and 2 ml of 7.5% NaHCO3 solution was added to the solution. Then the solution was filtered through a Millipore filter (pore size: 0.22μ) and supplemented with 100 ml of germ-free blood serum. Into a micro test plate (Falcon), 0.15 ml portions of the culture medium thus prepared were placed. Then a 0.05 ml culture sample of previously cultured mouse fibroblast cell 3T3 or mouse fibroblast cell 3T3 transformed with Semian virus-40 (SV 3T3) was inoculated into each portion of the culture medium. Thereafter, the inoculated media were incubated in a CO2 gas incubator (concentration of CO2 gas: 7.0%) at 37° C. for 24 hours. Into the media AN-201(I) or (II) was added to contain 20 μg/ml, 40 μg/ml, 50 μg/ml or 60 μg/ml, and additional cultivation was carried out for 3 days. Number of injured cell in each medium was counted with an invert microscope using a Thama hematometer.

[3] = tested on: Pseudomonas aeruginosa ATCC 10145; experiment: Antimicrobial activity (MIC), broth culture; assay type: cell-based; details: ATCC10145, 37° C., 20 hours
Procedure: (§2) Two ml portions of M3 -Medium (Bactoantibiotic Medium--Difico, 1.75%, pH 7.2) were placed into test tubes and heated at 120° C. for 10 minutes. Each test strain in Table 1 was inoculated into a batch of culture medium, and the inoculated batches were cultured with shaking at 30° C. for 20 hours to obtain seed culture broths. A 0.05 ml sample of each culture broth was inoculated into 20 ml of M3 -Medium containing […] or (II). The inoculates were cultured at 37° C. for 20 hours with shaking. Thereafter, the optical density of each resultant culture broth at 660 nm was determined, and the minimum inhibition concentration (MIC) of each broth was calculated, and is shown in Table 1.

[4] = tested on: Sarcina lutia ATCC 93412; experiment: Antimicrobial activity (MIC), broth culture; assay type: cell-based; details: for MIC: Sarcina, ATCC93412, 20 h; for Antimicrobial activity: against Sarchina lutea ATCC 9341
Procedure: as §2

[5] = tested on: Bacillus subtilis ATCC 6633; experiment: Antimicrobial activity (MIC), broth culture; assay type: cell-based; details: for MIC: ATCC6633, Bacillus subtilis ATCC 6633, 37° C., 20 hours; for Antimicrobial activity: against Bacillus subtilis ATCC 6633
Procedure: as §2

[6] = tested on: Staphylococcus aureus FDA 209 P; experiment: Antimicrobial activity (MIC), broth culture; assay type: cell-based; details: for MIC: FDA209, Staphylococcus aureus FDA 209 P, 37° C., 20 hours; for Antimicrobial activity: against Streptococcus aureus FDA 209P
Procedure: as §2

[7] = tested on: Escherichia coli K-12 ATCC 10798; experiment: Antimicrobial activity (MIC), broth culture; assay type: cell-based; details: ATCC10798, 37° C., 20 hours
Procedure: as §2

[8] = tested on: mouse fibroblast cell 3T3 transformed with Semian virus-40 (SV 3T3); experiment: Number of injured cells, SV 3T3 (transformed with Semian virus-40); assay type: cell-based; parameters: key: -: none of the cells injured; +: half of the cells injured; ++: about 2/3 of the cells injured; +++: almost all of the cells injured; details: 3 days
Procedure: as §1

[9] = tested on: LEWIS lung carcinoma; experiment: Effect on LEWIS lung carcinoma in BDF1 mice; assay type: in vivo, mouse; details: for Reduction of tumor size / I.L.S.: intraperitoneally daily for 1-10 days; for Antitumor activity: against LEWIS lung carcinoma in mouse; for I.L.S.: increase in life span; for Life prolongation effects compared with BLM: mouse suffered from LEWIS lung carcinoma
Procedure: LEWIS lung carcinoma (1 mm^3) was transplanted subcutaneously into BDF1 mice. After 24 hours of the transplantation, AN-201(I), (II) and BLM were intraperitoneally injected daily for 1-10 days. Antitumor activity was indicated with a reduction in tumor size or with a increase in life span.

[10] = tested on: Escherichia coli MP-2; experiment: Antimicrobial activity (MIC), broth culture; assay type: cell-based; details: MP2, 37° C., 20 hours
Procedure: AN-201(I) and (II) can be assayed by determining anti-microbial activity to E. coli MP-2 (FERM-P 5432) (Agric. Biol. Chem., 43, 371, (1979)), which has permeability for high molecular compounds.
as §2

[11] = tested on: SV3T3; experiment: ED50 on SV-40-transformed 3T3 cells and selective cytotoxic effect; assay type: cell-based, mouse; details: for Cytotoxicity compared with BLM: 3T3 cell transformed with SV-40; for Selective cytotoxic effect (N/T ratio): ED50 of normal cell 3T3 to transformed cell SV3T3, 2880 min; for IC50: Mus musculus, SV3T3, 48 h, SV-40-transformed 3T3 cells, 2 days, read-out: ED50 SV3T3(T); for Antitumor activity (selective cytotoxicity): against 3T3 cell transformed with SV-40
Procedure: (§3) Normal cells, 3T3 and SV-40-transformed 3T3 cells, (SV3T3) were cultured in Eagle's minimal essential medium supplemented with 10% calf serum, 5 μg/ml of cefazoline and 100 μg/ml of streptomycin at the initial cell concentration of 4×10^4 cells/2 cm^2 for 3T3 and 2×10^4 cells/2 cm^2 for SV3T3 at 37° C. in 7% CO2 incubator. After one day of cultivation old medium was removed from tissue culture plate and various concentrations of drug diluted with new medium were added to the Falcon tissue culture plate. After 2 days of cultivation, the cell density was measured and the value of ED50 was determined. N/T ratio was calculated from ED50 value of normal cell, 3T3, to transformed cell, SV3T3.

[12] = ED50 on normal cells 3T3; assay type: cell-based; details: mouse; normal 3T3 cells; 2 days; read-out: ED50 33T3(N)
Procedure: as §3

[13] = tested on: LEWIS lung carcinoma; details: reported for the known agent, cited from earlier work

Compound	activity at 10 µg/mL [1]	activity at 20 µg/mL [1]	activity at 40 µg/mL [1]	activity at 50 µg/mL [1]	activity at 60 µg/mL [1]	Number of Injured Cell ([2]; 20 μg/ml)	Number of Injured Cell ([2]; 40 μg/ml)	Number of Injured Cell ([2]; 50 μg/ml)	Number of Injured Cell ([2]; 60 μg/ml)	MIC [3]	MIC [4]	Antimicrobial activity [4]	MIC [5]	Antimicrobial activity [5]	MIC [6]	Antimicrobial activity [6]	MIC [7]	Number of Injured Cell ([8]; 20 μg/ml)	Number of Injured Cell ([8]; 40 μg/ml)	Number of Injured Cell ([8]; 50 μg/ml)	further results
CC(=O)NC(CCCNC(=O)CC(N)CCCN)CC(=O)NC1C(N=C2NC3C(=O)NCC(O)C3N2)OC(CO)C(OC(N)=O)C1O (centres unmarked) [AN-201(I)]	100%	80%	30%	0%	0%	-	-	+	++	> 50 µg/mL	5 µg/mL (≈ 7.43 µM)	positive	2.7 µg/mL (≈ 4.01 µM)	positive	2 µg/mL (≈ 2.97 µM)	positive	> 50 µg/mL	-	+	+++	Number of Injured Cell ([8]; 60 μg/ml): +++; Reduction of tumor size ([9]; 9 mg/kg): 45-50%; Reduction of tumor size ([9]; 18 mg/kg): 50-65%; Antitumor activity [9]: positive; I.L.S. ([9]; 9 mg/kg): 114-120%; I.L.S. ([9]; 18 mg/kg): 120-125%; Life prolongation effects compared with BLM [9]: greater life prolongation effects; MIC [10]: 20 µg/mL (≈ 29.7 µM); Cytotoxicity compared with BLM [11]: more strongly and selectively cytotoxic; Selective cytotoxic effect (N/T ratio) [11]: 2.2; IC50 [11]: 25 µg/mL (≈ 37.2 µM); Antitumor activity (selective cytotoxicity) [11]: cytotoxic selectively; CC50 at 48 h [12]: 55 µg/mL (≈ 81.8 µM)
CC(=O)NC(CCCNC(=O)CC(N)CCCNC(=O)CC(N)CCCN)CC(=O)NC1C(N=C2NC3C(=O)NCC(O)C3N2)OC(CO)C(OC(N)=O)C1O (centres unmarked) [AN-201(II)]	100%	80%	25%	0%	0%	-	-	+	++	> 50 µg/mL	5 µg/mL (≈ 6.24 µM)	positive	1.5 µg/mL (≈ 1.87 µM)	positive	2 µg/mL (≈ 2.5 µM)	positive	> 50 µg/mL	-	+	+++	Number of Injured Cell ([8]; 60 μg/ml): +++; Reduction of tumor size ([9]; 1 mg/kg): 50-57%; Reduction of tumor size ([9]; 3 mg/kg): 54-60%; Reduction of tumor size ([9]; 9 mg/kg): 74-85%; Antitumor activity [9]: positive; I.L.S. ([9]; 1 mg/kg): 101-110%; I.L.S. ([9]; 3 mg/kg): 121-130%; I.L.S. ([9]; 9 mg/kg): 124-135%; Life prolongation effects compared with BLM [9]: greater life prolongation effects; MIC [10]: 4 µg/mL (≈ 4.99 µM); Cytotoxicity compared with BLM [11]: more strongly and selectively cytotoxic; Selective cytotoxic effect (N/T ratio) [11]: 3.3; IC50 [11]: 15 µg/mL (≈ 18.7 µM); Antitumor activity (selective cytotoxicity) [11]: cytotoxic selectively; CC50 at 48 h [12]: 50 µg/mL (≈ 62.4 µM)
bleomycin [BLM, reference compound]																					Antitumor activity (reported) ([13]; LEWIS lung carcinoma in mouse): notable antitumor activity; Chemotherapeutic coefficient (reported) [13]: very high; Reduction of tumor size ([9]; 5 mg/kg): 52-60%; Reduction of tumor size ([9]; 10 mg/kg): 65-80%; I.L.S. ([9]; 5 mg/kg): 100-110%; I.L.S. ([9]; 10 mg/kg): 119-124%
